From article PMC6722010 (Molecular pharmaceutics, 2019)

Legend:
PSMA = assay: in vivo 68Ga-PSMA-11 blocking, PET imaging and biodistribution; details: 22Rv1 xenograft mice; organs gamma counted
solubility = format: physicochemical; details: water / buffer

Compound: N[C@@H](Cc1ccc(B(O)O)cc1)C(=O)O [BPA, 4-borono-L-phenylalanine]
- 68Ga-PSMA-11 biodistribution, uptake in kidney, spleen and tumor (PSMA): did not significantly block uptake
- solubility (solubility): low solubility in buffer
